Calls of active or inactive are those of the source. The rule behind the calls is not given here.
Legend:
[1] = Cytotoxicity against human HEK-Blue hNOD2 cells assessed as metabolic activity at 10 uM incubated for 18 hes by MTT assay; type: toxicity, cell-based; settings: hek-blue hnod2, 10 µM
PBMC [2] = experiment: Immunomodulatory activity in human PBMC cells assessed as increase in IL-4 level at 2 uM incubated for 18 hrs y flow cytometry analysis; type: functional, cell-based
How it was run: (§1)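 Human donor PBMCs (Ficoll-Paque; 1 × 10^6 cells/mL, 500 μL, 48-well plates) were treated with compounds at 2 μM or 0.1% DMSO vehicle without LPS for 18 h at 37 °C, 5% CO2. Cytokines in cell-free supernatants were quantified with the LEGENDplex Human Essential Immune Response Panel on a flow cytometer against kit recombinant standard curves. Four independent replicates; two-way ANOVA with Tukey's test.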

PBMC [3] = experiment: Immunomodulatory activity in human PBMC cells assessed as increase in IL-2 level at 2 uM incubated for 18 hrs y flow cytometry analysis; type: functional, cell-based; how it was run: as §1
PBMC [4] = experiment: Immunomodulatory activity in human PBMC cells assessed as increase in IP-10 level at 2 uM incubated for 18 hrs y flow cytometry analysis; type: functional, cell-based; how it was run: as §1
PBMC [5] = experiment: Immunomodulatory activity in human PBMC cells assessed as increase in IL-1beta level at 2 uM incubated for 18 hrs y flow cytometry analysis; type: functional, cell-based; how it was run: as §1
PBMC [6] = experiment: Immunomodulatory activity in human PBMC cells assessed as increase in TNF-alpha level at 2 uM incubated for 18 hrs y flow cytometry analysis; type: functional, cell-based; how it was run: as §1
PBMC [7] = experiment: Immunomodulatory activity in human PBMC cells assessed as increase in MCP-1 level at 2 uM incubated for 18 hrs y flow cytometry analysis; type: functional, cell-based; how it was run: as §1
PBMC [8] = experiment: Immunomodulatory activity in human PBMC cells assessed as increase in IL-17A level at 2 uM incubated for 18 hrs y flow cytometry analysis; type: functional, cell-based; how it was run: as §1
PBMC [9] = experiment: Immunomodulatory activity in human PBMC cells assessed as increase in IL-6 level at 2 uM incubated for 18 hrs y flow cytometry analysis; type: functional, cell-based; how it was run: as §1
PBMC [10] = experiment: Immunomodulatory activity in human PBMC cells assessed as increase in IL-10 level at 2 uM incubated for 18 hrs y flow cytometry analysis; type: functional, cell-based; how it was run: as §1
PBMC [11] = experiment: Immunomodulatory activity in human PBMC cells assessed as increase in IFN-gamma level at 2 uM incubated for 18 hrs y flow cytometry analysis; type: functional, cell-based; how it was run: as §1
PBMC [12] = experiment: Immunomodulatory activity in human PBMC cells assessed as increase in IL-12p70 level at 2 uM incubated for 18 hrs y flow cytometry analysis; type: functional, cell-based; how it was run: as §1
PBMC [13] = experiment: Immunomodulatory activity in human PBMC cells assessed as increase in IL-8 level at 2 uM incubated for 18 hrs y flow cytometry analysis; type: functional, cell-based; how it was run: as §1
PBMC [14] = experiment: Immunomodulatory activity in human PBMC cells assessed as increase in TGF-beta1 level at 2 uM incubated for 18 hrs y flow cytometry analysis; type: functional, cell-based; how it was run: as §1
PBMC [15] = experiment: Immunomodulatory activity in human PBMC cells assessed as increase in LPS-induced IL-1beta level at 2 uM incubated for 18 hrs y flow cytometry analysis; type: functional, cell-based
PBMC [16] = experiment: Immunomodulatory activity in human PBMC cells assessed as increase in LPS-induced IL-6 level at 2 uM incubated for 18 hrs y flow cytometry analysis; type: functional, cell-based
How it was run: (§2)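 Peripheral blood mononuclear cells from human donors were isolated with Ficoll-Paque and plated in 48-well plates at 1 × 10^6 cells/mL, 500 μL per well. Cells received compounds at 2 μM or 0.1% DMSO together with LPS (10 ng/mL) and were kept for 18 h at 37 °C, 5% CO2. Cytokine levels in cell-free supernatants were measured by flow cytometry with the LEGENDplex Human Essential Immune Response Panel, using the kit's recombinant standard curves. Data come from four independent replicates analysed by two-way ANOVA with Tukey's test.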

PBMC [17] = experiment: Immunomodulatory activity in human PBMC cells assessed as increase in LPS-induced IL-10 level at 2 uM incubated for 18 hrs y flow cytometry analysis; type: functional, cell-based; how it was run: as §2
PBMC [18] = experiment: Immunomodulatory activity in human PBMC cells assessed as increase in LPS-induced TNF-alpha level at 2 uM incubated for 18 hrs y flow cytometry analysis; type: functional, cell-based
PBMC [19] = experiment: Immunomodulatory activity in human PBMC cells assessed as increase in LPS-induced IL-12p70 level at 2 uM incubated for 18 hrs y flow cytometry analysis; type: functional, cell-based
PBMC [20] = experiment: Immunomodulatory activity in human PBMC cells assessed as increase in LPS-induced IFN-gamma level at 2 uM incubated for 18 hrs y flow cytometry analysis; type: functional, cell-based
PBMC [21] = experiment: Immunomodulatory activity in human PBMC cells assessed as increase in LPS-induced MCP-1 level at 2 uM incubated for 18 hrs y flow cytometry analysis; type: functional, cell-based; how it was run: as §2
PBMC [22] = experiment: Immunomodulatory activity in human PBMC cells assessed as increase in LPS-induced IP-10 level at 2 uM incubated for 18 hrs y flow cytometry analysis; type: functional, cell-based; how it was run: as §2
PBMC [23] = experiment: Cytotoxicity against human PBMC cells co-cultured with human K562 cells at 10 uM incubated for 4 hrs; type: functional, cell-based
How it was run: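 Killing was scored as the share of K562 cells positive for both CFSE and Sytox blue. Human PBMCs were seeded in 96-well plates at 4 × 10^5 per well and pretreated for 18 h with compounds at 10 μM, with 0.1% DMSO as vehicle. CFSE-stained K562 cells were then added at 1 × 10^4 per well (effector:target 40:1) for 4 h at 37 °C, 5% CO2, before Sytox blue staining and reading on an Attune NxT flow cytometer. Assays ran in duplicate across three independent biological replicates and were analysed by one-way ANOVA with Dunnett's test.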

[24] = Cytotoxicity against human PBMC cells at 10 uM incubated for 4 hrs; type: toxicity, cell-based
How it was run: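 Direct cytotoxicity was scored as the fraction of Sytox blue-positive cells among human PBMCs cultured without other cells. The PBMCs were exposed to compounds at 10 μM, with 0.1% DMSO as vehicle, alongside a K562 killing assay, then stained with Sytox blue dead cell stain and run on an Attune NxT flow cytometer, with analysis in FlowJo. Each condition was tested in duplicate across three independent biological replicates, and one-way ANOVA with Dunnett's test was applied.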

[25] = Cytotoxicity against human PBMC cells at 10 uM incubated for 4 hrs in presence of MDP; type: toxicity, cell-based

CCCCC(CC)C(=O)Oc1ccc(/C=C/C(=O)NCC(=O)N[C@H](C(=O)N[C@H](CCC(=O)OCC)C(=O)OCC)C(C)C)cc1OC (stereo partly specified)
Activity [1]: Non-toxic

CCOC(=O)[C@@H](CCC(=O)NCCCCN)NC(=O)[C@@H](NC(=O)CNC(=O)/C=C/c1ccc(O)c(OC)c1)C(C)C
Activity [1]: Non-toxic

CCCCCCC(CC)C(=O)Oc1ccc(/C=C/C(=O)NCC(=O)N[C@H](C(=O)N[C@H](CCC(=O)OCC)C(=O)OCC)C(C)C)cc1OC (stereo partly specified)
Activity [1]: Non-toxic

CCOC(=O)[C@@H](CCC(=O)NCCCNCCCCN)NC(=O)[C@@H](NC(=O)CNC(=O)/C=C/c1ccc(O)c(OC)c1)C(C)C
Activity [1]: Non-toxic

CCCCCCCCCC(=O)Oc1ccc(/C=C/C(=O)NCC(=O)N[C@H](C(=O)N[C@H](CCC(=O)OCC)C(=O)OCC)C(C)C)cc1OC
Activity [1]: Non-toxic

CC/C=C\C/C=C\C/C=C\CCCCCCCC(=O)Oc1ccc(/C=C/C(=O)NCC(=O)N[C@H](C(=O)N[C@H](CCC(=O)OCC)C(=O)OCC)C(C)C)cc1OC
Activity [1]: Non-toxic

CC/C=C\C/C=C\C/C=C\C/C=C\C/C=C\C/C=C\CCC(=O)Oc1ccc(/C=C/C(=O)NCC(=O)N[C@H](C(=O)N[C@H](CCC(=O)OCC)C(=O)OCC)C(C)C)cc1OC
Activity [1]: Non-toxic

CCOC(=O)CC[C@@H](NC(=O)[C@@H](NC(=O)CNC(=O)/C=C/c1cc(OC)c(O)c(OC)c1)C(C)C)C(=O)OCC
Activity [1]: Non-toxic

CCCCC/C=C\C/C=C\CCCCCCCC(=O)Oc1ccc(/C=C/C(=O)NCC(=O)N[C@H](C(=O)N[C@H](CCC(=O)OCC)C(=O)OCC)C(C)C)cc1OC
Activity [1]: Non-toxic

CCCCCCCCCCCCCCCCCC(=O)Oc1ccc(/C=C/C(=O)NCC(=O)N[C@H](C(=O)N[C@H](CCC(=O)OCC)C(=O)OCC)C(C)C)cc1OC
Activity [1]: Non-toxic

CCCCCCCC/C=C\CCCCCCCC(=O)Oc1ccc(/C=C/C(=O)NCC(=O)N[C@H](C(=O)N[C@H](CCC(=O)OCC)C(=O)OCC)C(C)C)cc1OC
Activity [1]: Non-toxic

CCCCC(CCCC)C(=O)Oc1ccc(/C=C/C(=O)NCC(=O)N[C@H](C(=O)N[C@H](CCC(=O)OCC)C(=O)OCC)C(C)C)cc1OC
Activity [1]: Non-toxic

CCCCCCCCCCCC(=O)Oc1ccc(/C=C/C(=O)NCC(=O)N[C@H](C(=O)N[C@H](CCC(=O)OCC)C(=O)OCC)C(C)C)cc1OC
Activity (PBMC [2]): Active | Activity (PBMC [3]): Active | Activity (PBMC [4]): Active | Activity (PBMC [5]): Active | Activity (PBMC [6]): Active | Activity (PBMC [7]): Active | Activity (PBMC [8]): Active | Activity (PBMC [9]): Active | Activity (PBMC [10]): Active | Activity (PBMC [11]): Active | Activity (PBMC [12]): Active | Activity (PBMC [13]): Active | Activity (PBMC [14]): Active | Activity (PBMC [15]): Active | Activity (PBMC [16]): Active | Activity (PBMC [17]): Active | Activity (PBMC [18]): Active | Activity (PBMC [19]): Active | Activity (PBMC [20]): Active | Activity (PBMC [21]): Active | Activity (PBMC [22]): Active | Activity (PBMC [23]): inactive | Activity [24]: Non-toxic

CCOC(=O)CC[C@@H](NC(=O)[C@@H](NC(=O)CNC(=O)/C=C/c1ccc(OC(=O)CCCC2CCCCC2)c(OC)c1)C(C)C)C(=O)OCC
Activity [1]: Non-toxic

CCCCCCCCCCCCCC(=O)Oc1ccc(/C=C/C(=O)NCC(=O)N[C@H](C(=O)N[C@H](CCC(=O)OCC)C(=O)OCC)C(C)C)cc1OC
Activity [1]: Non-toxic

CCCCCC(C)C(=O)Oc1ccc(/C=C/C(=O)NCC(=O)N[C@H](C(=O)N[C@H](CCC(=O)OCC)C(=O)OCC)C(C)C)cc1OC (stereo partly specified)
Activity [1]: Non-toxic

CCCCCCCCCCCCCCCC(=O)Oc1ccc(/C=C/C(=O)NCC(=O)N[C@H](C(=O)N[C@H](CCC(=O)OCC)C(=O)OCC)C(C)C)cc1OC
Activity [1]: Non-toxic

CCCCC/C=C\C/C=C\C/C=C\CCCCC(=O)Oc1ccc(/C=C/C(=O)NCC(=O)N[C@H](C(=O)N[C@H](CCC(=O)OCC)C(=O)OCC)C(C)C)cc1OC
Activity [1]: Non-toxic

CCOC(=O)[C@@H](CCC(=O)NCCCNCCCCNCCCN)NC(=O)[C@@H](NC(=O)CNC(=O)/C=C/c1ccc(O)c(OC)c1)C(C)C
Activity [1]: Non-toxic | Activity (PBMC [2]): Active | Activity (PBMC [3]): Active | Activity (PBMC [4]): Active | Activity (PBMC [5]): Active | Activity (PBMC [6]): Active | Activity (PBMC [7]): Active | Activity (PBMC [8]): Active | Activity (PBMC [9]): Active | Activity (PBMC [10]): Active | Activity (PBMC [11]): Active | Activity (PBMC [12]): Active | Activity (PBMC [13]): Active | Activity (PBMC [14]): Active | Activity (PBMC [15]): Active | Activity (PBMC [16]): Active | Activity (PBMC [17]): Active | Activity (PBMC [18]): Active | Activity (PBMC [19]): Active | Activity (PBMC [20]): Active | Activity (PBMC [21]): Active | Activity (PBMC [22]): Active | Activity (PBMC [23]): inactive | Activity [24]: Non-toxic | Activity [25]: Non-toxic

CCCCCC(=O)Oc1ccc(/C=C/C(=O)NCC(=O)N[C@H](C(=O)N[C@H](CCC(=O)OCC)C(=O)OCC)C(C)C)cc1OC
Activity [1]: Non-toxic

CCCCCCCC(=O)Oc1ccc(/C=C/C(=O)NCC(=O)N[C@H](C(=O)N[C@H](CCC(=O)OCC)C(=O)OCC)C(C)C)cc1OC
Activity [1]: Non-toxic

CCCCCC(CCC)C(=O)Oc1ccc(/C=C/C(=O)NCC(=O)N[C@H](C(=O)N[C@H](CCC(=O)OCC)C(=O)OCC)C(C)C)cc1OC (stereo partly specified)
Activity [1]: Non-toxic

CCOC(=O)[C@@H](CCC(=O)OCCN1CCOCC1)NC(=O)[C@@H](NC(=O)CNC(=O)/C=C/c1ccc(O)c(OC)c1)C(C)C
Activity [1]: Non-toxic

CCOC(=O)CC[C@@H](NC(=O)[C@@H](NC(=O)CNC(=O)/C=C/c1ccc(OC(=O)CCCCCCCCCCCCCO)c(OC)c1)C(C)C)C(=O)OCC
Activity [1]: Non-toxic

CCCCCC(CCCCC)C(=O)Oc1ccc(/C=C/C(=O)NCC(=O)N[C@H](C(=O)N[C@H](CCC(=O)OCC)C(=O)OCC)C(C)C)cc1OC
Activity [1]: Non-toxic
